The values below come from ChEMBL document CHEMBL4351021, “Design, synthesis and biological evaluation of novel FFA1/GPR40 agonists: New breakthrough in an old scaffold” (Eur J Med Chem, 2019).

The source made the active and inactive calls. No cut-off for these calls is given here.

Free fatty acid receptor 1, sequence (O14842 whole entry): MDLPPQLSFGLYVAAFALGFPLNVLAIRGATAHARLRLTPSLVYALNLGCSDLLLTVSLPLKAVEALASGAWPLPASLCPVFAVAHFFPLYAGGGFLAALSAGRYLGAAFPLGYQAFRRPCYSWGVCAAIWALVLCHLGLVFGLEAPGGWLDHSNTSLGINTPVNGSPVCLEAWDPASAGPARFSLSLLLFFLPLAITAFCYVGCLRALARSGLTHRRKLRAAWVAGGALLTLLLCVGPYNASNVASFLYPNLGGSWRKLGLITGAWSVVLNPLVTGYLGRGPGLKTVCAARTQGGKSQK

One series has as its target Free fatty acid receptor 1 (Homo sapiens, UniProt O14842). In words: Agonist activity at FFA1 receptor (unknown origin) stably expressed in CHO cells assessed as increase in calcium flux by Fluo4-AM based FLIPR assay. It counts as functional, cell-based.
Settings: not given
On the technique in general: Calcium flux is commonly read through the fluorescence of an indicator in the cells.
With `O=C(O)COc1ccc(NCc2cccc(-c3ccccc3F)c2)cc1F`, the EC50 is 36.5 nM.
On the same count and under the same terms, to `CCOc1cc(C)c(-c2cccc(COc3ccc(NCC(=O)O)c(F)c3)c2)c(C)c1` belongs greater than 1000 nM.
On the same count and under the same terms, to `COCCOc1cc(C)c(-c2cccc(CNc3ccc(OCC(=O)O)c(F)c3)c2)c(C)c1` belongs 51.6 nM.
Regarding `Cc1ccc(-c2cccc(CNc3ccc(OCC(=O)O)c(F)c3)c2)c(Cl)c1`, the EC50 is 22.5 nM.
On the same count and under the same terms, to `O=C(O)COc1ccc(NCc2ccc(Cl)c(-c3ccccc3)c2)cc1F` belongs 51.7 nM; to `CCOc1cc(C)c(-c2cccc(COc3ccc(OCC(=O)O)c(F)c3)c2)c(C)c1`, 69.3 nM.
In the case of `Cc1noc(C)c1-c1cccc(CNc2ccc(OCC(=O)O)c(F)c2)c1`, the EC50 was found to be 225 nM.
Still for that read-out and setting: to `COCCOc1ccc(-c2cccc(CNc3ccc(OCC(=O)O)c(F)c3)c2)c(C)c1` belongs 41.9 nM; to `O=C(O)COc1ccc(NCc2cccc(-c3ccccc3)c2)cc1F`, 58.5 nM; to `CCOc1ccc(-c2cccc(CNc3ccc(OCC(=O)O)c(F)c3)c2)c(C)c1`, 11.6 nM.
Still for that read-out and setting: to `CCOc1cc(C)c(-c2cccc(CNc3ccc(OCC(=O)O)cc3)c2)c(C)c1` belongs 197 nM; to `CCCOc1ccc(-c2cccc(CNc3ccc(OCC(=O)O)c(F)c3)c2)c(C)c1`, 41.3 nM.

Test system in a further series: not listed separately
In words: Clearance in Sprague-Dawley rat at 10 mg/kg, po measured for […] by LC-MS/MS analysis. It counts as ADME, organism-based. The following applies: Sprague-Dawley, in vivo.
Regarding `Cc1ccccc1-c1cccc(CNc2ccc(OCC(=O)O)c(F)c2)c1`, the CL/F was 0.109 mL/min/kg.

Test system in the next series: not listed separately
In words: Cmax in Sprague-Dawley rat at 10 mg/kg, po measured for […] by LC-MS/MS analysis. It counts as ADME, organism-based. Further details: dose 10 mg/kg, route oral. The following applies: in vivo.
`Cc1ccccc1-c1cccc(CNc2ccc(OCC(=O)O)c(F)c2)c1`: the concentration peaked (Cmax) at 187 µg/mL.

Test system in another series: not listed separately
In words: AUC (0 to 24 hrs) in Sprague-Dawley rat at 10 mg/kg, po measured for […] by LC-MS/MS analysis. The following applies: Sprague-Dawley, in vivo. Set-up: time < 24 hr, dose 10 mg/kg, route oral. It counts as ADME, organism-based.
With `Cc1ccccc1-c1cccc(CNc2ccc(OCC(=O)O)c(F)c2)c1`, the AUC(0-t) at 24 h was found to be 2870 µg·h/mL.

Another series deals with Hepatocyte. The series is described as follows: Hepatotoxicity in sandwich-cultured Sprague-Dawley rat hepatocytes assessed as inhibition of hepatobiliary transport by measuring biliary excretion index at 25 uM incubated for 15 mins followed by d8-TCA addition and measured after 15 mins by LC-MS/MS analysis. It counts as toxicity, cell-based. The following applies: 0.25 h.
As to `Cc1ccccc1-c1cccc(CNc2ccc(OCC(=O)O)c(F)c2)c1`, the Activity_index was 12.3%.
With `CCOc1ccc(-c2cccc(CNc3ccc(OCC(=O)O)c(F)c3)c2)c(C)c1`, the Activity_index was 19.3%.

Another series deals with Mus musculus. In words: Antidiabetic activity in ICR mouse assessed as reduction in blood glucose level at 20 mg/kg, po pretreated for 30 mins followed by glucose challenge and measured up to 120 mins by OGTT. It counts as functional, organism-based.
Settings: not given
For the compound `Cc1ccccc1-c1cccc(CNc2ccc(OCC(=O)O)c(F)c2)c1`, the outcome was Active.
Same read-out and setting: to `CCOc1ccc(-c2cccc(CNc3ccc(OCC(=O)O)c(F)c3)c2)c(C)c1` belongs “Active”.

Another series relates to Mus musculus. The series is described as follows: Antidiabetic activity in ICR mouse assessed as flattening of glucose curve after 1 hr at 20 mg/kg, po pretreated for 30 mins followed by glucose challenge and measured up to 120 mins by OGTT. It counts as functional, organism-based.
Settings: not given
As for `Cc1ccccc1-c1cccc(CNc2ccc(OCC(=O)O)c(F)c2)c1`, the outcome was Active.

In a further series the test system is Hepatocyte. The series is described as follows: Hepatotoxicity in sandwich-cultured Sprague-Dawley rat hepatocytes assessed as decrease in accumulation of d8-TCA at 25 uM incubated for 15 mins followed by d8-TCA addition and measured after 15 mins by LC-MS/MS analysis. It counts as toxicity, cell-based. Conditions: 0.25 h.
`Cc1ccccc1-c1cccc(CNc2ccc(OCC(=O)O)c(F)c2)c1`: the Activity result is “Toxic”.
On the same count and under the same terms, to `CCOc1ccc(-c2cccc(CNc3ccc(OCC(=O)O)c(F)c3)c2)c(C)c1` belongs “Toxic”.

Test system in a further series: not listed separately
The series is described as follows: Lipophilicity, logD of compound in 1-octanol and PBS mixture in pH 7.4 at 100 uM incubated for 24 under shaking condition by HPLC analysis. The following applies: 1-octanol/PBS. It counts as physicochemical.
Regarding `Cc1ccccc1-c1cccc(CNc2ccc(OCC(=O)O)c(F)c2)c1`, the logD at 100 µM worked out at 2.41.
For the compound `O=C(O)COc1ccc(NCc2cccc(-c3ccccc3F)c2)cc1F`, the logD at 100 µM was found to be 2.36.
As to `COCCOc1cc(C)c(-c2cccc(CNc3ccc(OCC(=O)O)c(F)c3)c2)c(C)c1`, the log distribution coefficient (logD) at 100 µM came out at 2.47.
With `Cc1ccc(-c2cccc(CNc3ccc(OCC(=O)O)c(F)c3)c2)c(Cl)c1`, the logD at 100 µM was 3.24.
With `O=C(O)COc1ccc(NCc2ccc(Cl)c(-c3ccccc3)c2)cc1F`, the logD at 100 µM was determined as 2.74.
Take `CCOc1cc(C)c(-c2cccc(COc3ccc(OCC(=O)O)c(F)c3)c2)c(C)c1`: the logD at 100 µM stood at 3.61.
Same read-out and setting: to `COCCOc1ccc(-c2cccc(CNc3ccc(OCC(=O)O)c(F)c3)c2)c(C)c1` belongs 2.23; to `O=C(O)COc1ccc(NCc2cccc(-c3ccccc3)c2)cc1F`, 2.25; to `CCOc1ccc(-c2cccc(CNc3ccc(OCC(=O)O)c(F)c3)c2)c(C)c1`, 2.83.
On the same count and under the same terms, to `CCCOc1ccc(-c2cccc(CNc3ccc(OCC(=O)O)c(F)c3)c2)c(C)c1` belongs 3.37.

Test system in the next series: not listed separately
The series is described as follows: Half life in Sprague-Dawley rat at 10 mg/kg, po measured for […] by LC-MS/MS analysis. It counts as ADME, organism-based. The following applies: in vivo.
`Cc1ccccc1-c1cccc(CNc2ccc(OCC(=O)O)c(F)c2)c1` showed a half-life of 5.42 h.

A further series deals with Rattus norvegicus. In words: Antidiabetic activity in Sprague-Dawley rat assessed as change in blood glucose level in fasting state at 10 mg/kg, po pretreated for 1 hr followed by glucose challenge and measured up to 120 mins by OGTT. It counts as functional, organism-based.
Settings: not given
Consider `COc1ccc(Cl)cc1C(=O)NCCc1ccc(S(=O)(=O)NC(=O)NC2CCCCC2)cc1`, for which the result was Active.

Usually EC50 stands for the concentration at which the effect is half-maximal. One may read the CL/F as the apparent clearance, not corrected for the fraction that reaches the circulation. As a reminder, the Cmax is the peak of the concentration-time curve. As usually defined, the AUC(0-t) is exposure summed from dosing to a finite time, without extrapolation to infinity. Low readings indicate low exposure, high ones high exposure. In general, logD refers to the decadic logarithm of the distribution of all forms, ionised or not, between an organic phase and buffer at a given pH. The half-life is the time in which the quantity being followed falls by half.
